System: MV-4-11 cells
Assay: Gene expression microarray analysis (Affymetrix PrimeView) and GSEA
Format: cell-based, human
Parameters: RFU PODN (11730768_x_at) / Fold change /veh PODN (11730768_x_at) / RFU LINC00158 (11744669_a_at) / Fold change /veh LINC00158 (11744669_a_at) / RFU DUSP10 (11751237_a_at) / Fold change /veh DUSP10 (11751237_a_at) / RFU ID3 (11757404_x_at) / Fold change /veh ID3 (11757404_x_at) / RFU PLEKHG5 (11737974_s_at) / Fold change /veh PLEKHG5 (11737974_s_at) / RFU LRRC4B (11730491_at) / Fold change /veh LRRC4B (11730491_at) / RFU GIMAP4 (11747438_a_at) / Fold change /veh GIMAP4 (11747438_a_at) / RFU KRT8 (11758183_x_at) / Fold change /veh KRT8 (11758183_x_at) / RFU CNN1 (11734310_a_at) / Fold change /veh CNN1 (11734310_a_at) / RFU VPS37D (11726825_at) / Fold change /veh VPS37D (11726825_at) / RFU C10orf10 (11716522_x_at) / Fold change /veh C10orf10 (11716522_x_at) / RFU KIR2DL2 /// KIR2DL4 /// KIR2DL5A /// KIR2DL5B /// KIR2DS1 /// KIR2DS2 /// KIR2DS3 /// KIR2DS4 /// KIR3DL3 /// KIR3DL3 /// KIR3DS1 (11738374_at) / Fold change /veh KIR2DL2 /// KIR2DL4 /// KIR2DL5A /// KIR2DL5B /// KIR2DS1 /// KIR2DS2 /// KIR2DS3 /// KIR2DS4 /// KIR3DL3 /// KIR3DL3 /// KIR3DS1 (11738374_at) / RFU C1QL1 (11718748_at) / Fold change /veh C1QL1 (11718748_at) / RFU TMPRSS4 (11747572_a_at) / Fold change /veh TMPRSS4 (11747572_a_at) / RFU HAMP (11756126_x_at) / Fold change /veh HAMP (11756126_x_at) / RFU RNFT2 (11725882_a_at) / Fold change /veh RNFT2 (11725882_a_at) / RFU NR4A2 (11747474_a_at) / Fold change /veh NR4A2 (11747474_a_at) / RFU ABCC12 (11746883_a_at) / Fold change /veh ABCC12 (11746883_a_at) / RFU TMEM136 (11760407_x_at) / Fold change /veh TMEM136 (11760407_x_at) / RFU CLDN22 /// WWC2 (11732394_at) / Fold change /veh CLDN22 /// WWC2 (11732394_at) / RFU HLA-DPB1 (11760878_x_at) / Fold change /veh HLA-DPB1 (11760878_x_at) / RFU SPINT1 (11716480_a_at) / Fold change /veh SPINT1 (11716480_a_at) / RFU GAP43 (11754022_s_at) / Fold change /veh GAP43 (11754022_s_at) / RFU A4GNT (11735810_at) / Fold change /veh A4GNT (11735810_at) / RFU PRB3 (11715151_x_at) / Fold change /veh PRB3 (11715151_x_at) / RFU TUBB4B (11761932_at) / Fold change /veh TUBB4B (11761932_at) / RFU CAPN14 (11732068_a_at) / Fold change /veh CAPN14 (11732068_a_at) / RFU TMCC2 (11721928_a_at) / Fold change /veh TMCC2 (11721928_a_at) / RFU IRGQ (11745062_a_at) / Fold change /veh IRGQ (11745062_a_at) / RFU FAM174B (11720279_a_at) / Fold change /veh FAM174B (11720279_a_at) / RFU TMPRSS4 (11748680_a_at) / Fold change /veh TMPRSS4 (11748680_a_at) / RFU FAM212B (11763350_a_at) / Fold change /veh FAM212B (11763350_a_at) / RFU PLEKHG5 (11743358_a_at) / Fold change /veh PLEKHG5 (11743358_a_at) / RFU ZSCAN30 (11745921_a_at) / Fold change /veh ZSCAN30 (11745921_a_at) / RFU CMKLR1 (11741424_a_at) / Fold change /veh CMKLR1 (11741424_a_at) / RFU LOC101060620 /// MAPK8IP1 (11723275_at) / Fold change /veh LOC101060620 /// MAPK8IP1 (11723275_at) / RFU SPTSSB (11747773_x_at) / Fold change /veh SPTSSB (11747773_x_at) / RFU PRSS12 (11739890_at) / Fold change /veh PRSS12 (11739890_at) / RFU BIN1 (11741810_x_at) / Fold change /veh BIN1 (11741810_x_at) / RFU WNT11 (11732464_a_at) / Fold change /veh WNT11 (11732464_a_at) / RFU C10orf10 (11716521_a_at) / Fold change /veh C10orf10 (11716521_a_at) / RFU C5orf56 (11738089_at) / Fold change /veh C5orf56 (11738089_at) / RFU CYB561 (11721691_x_at) / Fold change /veh CYB561 (11721691_x_at) / RFU ANKRD19P (11752326_a_at) / Fold change /veh ANKRD19P (11752326_a_at) / RFU OR2T12 /// OR2T33 /// OR2T8 (11738714_s_at) / Fold change /veh OR2T12 /// OR2T33 /// OR2T8 (11738714_s_at) / RFU VCAN (11748164_a_at) / Fold change /veh VCAN (11748164_a_at) / RFU JSRP1 (11732532_at) / Fold change /veh JSRP1 (11732532_at) / RFU KRTAP10-11 (11738290_x_at) / Fold change /veh KRTAP10-11 (11738290_x_at) / RFU MYO3A (11730013_a_at) / Fold change /veh MYO3A (11730013_a_at) / RFU EBF3 (11725865_a_at) / Fold change /veh EBF3 (11725865_a_at) / RFU CAMK2N1 (11719241_x_at) / Fold change /veh CAMK2N1 (11719241_x_at) / RFU C5orf56 (11738088_a_at) / Fold change /veh C5orf56 (11738088_a_at) / RFU OLFML3 (11715873_a_at) / Fold change /veh OLFML3 (11715873_a_at) / RFU LOC100653217 /// NTM (11731650_a_at) / Fold change /veh LOC100653217 /// NTM (11731650_a_at) / RFU MAPK11 (11762145_a_at) / Fold change /veh MAPK11 (11762145_a_at) / RFU FIZ1 (11724087_x_at) / Fold change /veh FIZ1 (11724087_x_at) / RFU OASL (11726364_x_at) / Fold change /veh OASL (11726364_x_at) / RFU SOX15 (11748057_x_at) / Fold change /veh SOX15 (11748057_x_at) / RFU CD79A (11719716_a_at) / Fold change /veh CD79A (11719716_a_at) / RFU HIST1H1D (11736915_at) / Fold change /veh HIST1H1D (11736915_at) / RFU CASKIN2 (11723855_a_at) / Fold change /veh CASKIN2 (11723855_a_at) / RFU LOC730098 (11760151_x_at) / Fold change /veh LOC730098 (11760151_x_at) / RFU OR4N2 (11742367_at) / Fold change /veh OR4N2 (11742367_at) / RFU PRRT2 (11749266_a_at) / Fold change /veh PRRT2 (11749266_a_at) / RFU SNX32 (11753110_a_at) / Fold change /veh SNX32 (11753110_a_at) / RFU CDHR5 (11726645_a_at) / Fold change /veh CDHR5 (11726645_a_at) / RFU RCAN1 (11760418_a_at) / Fold change /veh RCAN1 (11760418_a_at) / RFU FAM167A (11723789_a_at) / Fold change /veh FAM167A (11723789_a_at) / RFU FAM26E (11764081_at) / Fold change /veh FAM26E (11764081_at) / RFU ISYNA1 (11749810_s_at) / Fold change /veh ISYNA1 (11749810_s_at) / RFU ACY1 (11761880_at) / Fold change /veh ACY1 (11761880_at) / RFU 11764098_at / Fold change /veh 11764098_at / RFU SAMD14 (11745864_x_at) / Fold change /veh SAMD14 (11745864_x_at) / RFU NPB (11741838_a_at) / Fold change /veh NPB (11741838_a_at) / RFU TMPRSS6 (11731388_a_at) / Fold change /veh TMPRSS6 (11731388_a_at) / RFU KRTAP10-2 (11738614_at) / Fold change /veh KRTAP10-2 (11738614_at) / RFU ARHGAP8 /// PRR5-ARHGAP8 (11727945_x_at) / Fold change /veh ARHGAP8 /// PRR5-ARHGAP8 (11727945_x_at) / RFU KRTAP5-7 /// NADSYN1 (11734609_at) / Fold change /veh KRTAP5-7 /// NADSYN1 (11734609_at) / RFU RASL12 (11751679_a_at) / Fold change /veh RASL12 (11751679_a_at) / RFU CDKN2B (11736163_a_at) / Fold change /veh CDKN2B (11736163_a_at) / RFU PRF1 (11729649_at) / Fold change /veh PRF1 (11729649_at) / RFU, ZNF638 /// ZNF638-IT1 / Fold change vs veh, ZNF638 /// ZNF638-IT1 / RFU, PANK3 / Fold change vs veh, PANK3 / RFU, SH3YL1 / Fold change vs veh, SH3YL1 / RFU, ZEB2 / Fold change vs veh, ZEB2 / RFU, NRIP1 / Fold change vs veh, NRIP1 / RFU, PTTG1IP / Fold change vs veh, PTTG1IP / RFU, CAPN2 / Fold change vs veh, CAPN2 / RFU, MED14 / Fold change vs veh, MED14 / RFU, SNORA58 / Fold change vs veh, SNORA58 / RFU, C1orf63 / Fold change vs veh, C1orf63 / RFU, LRRFIP1 / Fold change vs veh, LRRFIP1 / RFU, NDUFAF7 / Fold change vs veh, NDUFAF7 / RFU, SLC12A2 / Fold change vs veh, SLC12A2 / RFU, IBTK / Fold change vs veh, IBTK / RFU, ESF1 / Fold change vs veh, ESF1 / Fold change vs veh, TMEM50B / RFU, TAOK1 / Fold change vs veh, TAOK1 / RFU, ACBD3 / Fold change vs veh, ACBD3 / RFU, TMA16 / Fold change vs veh, TMA16 / RFU, RWDD3 / Fold change vs veh, RWDD3 / RFU, BCAT1 / Fold change vs veh, BCAT1 / RFU, EDEM3 / Fold change vs veh, EDEM3 / RFU, TMEM33 / Fold change vs veh, TMEM33 / RFU, WDR75 / Fold change vs veh, WDR75 / RFU, AHCTF1 / Fold change vs veh, AHCTF1 / RFU, TFRC / Fold change vs veh, TFRC / RFU, ZDHHC17 / Fold change vs veh, ZDHHC17 / RFU, NOM1 / Fold change vs veh, NOM1 / RFU, ARL8B / Fold change vs veh, ARL8B / RFU, ZBTB11 / Fold change vs veh, ZBTB11 / RFU, TAMM41 / Fold change vs veh, TAMM41 / RFU, KIAA1704 /// LOC100996395 / Fold change vs veh, KIAA1704 /// LOC100996395 / RFU, ING1 / Fold change vs veh, ING1 / RFU, TRMT61B / Fold change vs veh, TRMT61B / RFU, FUBP3 / Fold change vs veh, FUBP3 / RFU, TP53 / Fold change vs veh, TP53 / RFU, TNKS2 / Fold change vs veh, TNKS2 / RFU, ZFP14 / Fold change vs veh, ZFP14 / RFU, ACTR2 / Fold change vs veh, ACTR2 / RFU, PPP3R1 / Fold change vs veh, PPP3R1 / RFU, PIK3R1 / Fold change vs veh, PIK3R1 / RFU, HNRNPA1 / Fold change vs veh, HNRNPA1 / RFU, RNF170 / Fold change vs veh, RNF170 / RFU, ZNF28 / Fold change vs veh, ZNF28 / RFU, RNGTT / Fold change vs veh, RNGTT / RFU, OGT / Fold change vs veh, OGT / RFU, BRD1 / Fold change vs veh, BRD1 / RFU, MARS / Fold change vs veh, MARS / RFU, ZNF655 / Fold change vs veh, ZNF655 / RFU, FAHD1 / Fold change vs veh, FAHD1 / RFU, BDP1 / Fold change vs veh, BDP1 / RFU, LRRCC1 / Fold change vs veh, LRRCC1 / RFU, ARID1A / Fold change vs veh, ARID1A / RFU, ZNF146 / Fold change vs veh, ZNF146 / RFU, ZNF330 / Fold change vs veh, ZNF330 / RFU, GPN3 / Fold change vs veh, GPN3 / RFU, C9orf123 / Fold change vs veh, C9orf123 / RFU, N4BP2L2 / Fold change vs veh, N4BP2L2 / RFU, ARFIP1 / Fold change vs veh, ARFIP1 / RFU, FAM179B / Fold change vs veh, FAM179B / RFU, BCL10 / Fold change vs veh, BCL10 / RFU, UHRF1BP1L / Fold change vs veh, UHRF1BP1L / RFU, BET1 / Fold change vs veh, BET1 / RFU, CNOT2 / Fold change vs veh, CNOT2 / RFU, ZNF268 / Fold change vs veh, ZNF268 / Fold change vs veh, ZNF507 / RFU, DGCR2 / Fold change vs veh, DGCR2 / RFU, WDSUB1 / Fold change vs veh, WDSUB1 / Fold change vs veh, HSP90B1 /// MIR3652 / RFU, ADSS / Fold change vs veh, ADSS / RFU, GK / Fold change vs veh, GK / RFU, ZNF148 / Fold change vs veh, ZNF148 / RFU, TAF9 / Fold change vs veh, TAF9 / RFU, SLC1A5 / Fold change vs veh, SLC1A5 / RFU, SLMO2 / Fold change vs veh, SLMO2 / RFU, ABCC4 / Fold change vs veh, ABCC4 / RFU, LOC101060439 /// RAP1B / Fold change vs veh, LOC101060439 /// RAP1B / RFU, RFX7 / Fold change vs veh, RFX7 / RFU, GTPBP10 / Fold change vs veh, GTPBP10 / RFU, CNEP1R1 / Fold change vs veh, CNEP1R1 / RFU, BIVM-ERCC5 /// ERCC5 / Fold change vs veh, BIVM-ERCC5 /// ERCC5 / RFU, ILF3 / Fold change vs veh, ILF3 / RFU 11762660_at / Fold change /veh 11762660_at / RFU VCAN (11757783_s_at) / Fold change /veh VCAN (11757783_s_at) / RFU DDX43 (11728927_at) / Fold change /veh DDX43 (11728927_at) / RFU KRT8 (11758188_x_at) / Fold change /veh KRT8 (11758188_x_at) / RFU NKD1 (11759106_at) / Fold change /veh NKD1 (11759106_at) / RFU SRD5A1 (11742802_a_at) / Fold change /veh SRD5A1 (11742802_a_at) / RFU TPSAB1 /// TPSB2 (11721975_s_at) / Fold change /veh TPSAB1 /// TPSB2 (11721975_s_at) / RFU GSTM3 (11746129_a_at) / Fold change /veh GSTM3 (11746129_a_at) / RFU IL23R (11737362_x_at) / Fold change /veh IL23R (11737362_x_at) / RFU TMEM51 (11727254_a_at) / Fold change /veh TMEM51 (11727254_a_at) / RFU PIWIL2 (11732686_x_at) / Fold change /veh PIWIL2 (11732686_x_at) / RFU ORM1 (11744905_x_at) / Fold change /veh ORM1 (11744905_x_at) / RFU CCDC152 (11743942_at) / Fold change /veh CCDC152 (11743942_at) / RFU ECM1 (11717891_a_at) / Fold change /veh ECM1 (11717891_a_at) / RFU IL23R (11748794_a_at) / Fold change /veh IL23R (11748794_a_at) / RFU TNFAIP8L3 (11732012_x_at) / Fold change /veh TNFAIP8L3 (11732012_x_at) / RFU MBOAT4 (11741988_at) / Fold change /veh MBOAT4 (11741988_at) / RFU 11764193_at / Fold change /veh 11764193_at / RFU TMEM53 (11763286_at) / Fold change /veh TMEM53 (11763286_at) / RFU MAGEB2 (11727129_at) / Fold change /veh MAGEB2 (11727129_at) / RFU TMEM200A (11744735_a_at) / Fold change /veh TMEM200A (11744735_a_at) / RFU CCDC152 (11751479_a_at) / Fold change /veh CCDC152 (11751479_a_at) / RFU FAM211A (11726209_a_at) / Fold change /veh FAM211A (11726209_a_at) / RFU RGS16 (11746705_a_at) / Fold change /veh RGS16 (11746705_a_at) / RFU VCAN (11755009_s_at) / Fold change /veh VCAN (11755009_s_at) / RFU RHOB (11743442_s_at) / Fold change /veh RHOB (11743442_s_at) / RFU RGS16 (11720943_a_at) / Fold change /veh RGS16 (11720943_a_at) / RFU RGS16 (11720944_at) / Fold change /veh RGS16 (11720944_at) / RFU, VPS4B / Fold change vs veh, VPS4B / RFU, CREB1 / Fold change vs veh, CREB1 / RFU, DNAJC13 / Fold change vs veh, DNAJC13 / RFU, GNAQ / Fold change vs veh, GNAQ / RFU, CDK5R1 / Fold change vs veh, CDK5R1 / RFU, ZRANB3 / Fold change vs veh, ZRANB3 / RFU, CUL4A / Fold change vs veh, CUL4A / RFU, CCNY / Fold change vs veh, CCNY / RFU, UFL1 / Fold change vs veh, UFL1 / RFU, COG3 / Fold change vs veh, COG3 / RFU, DIAPH2 / Fold change vs veh, DIAPH2 / RFU, SKA2 / Fold change vs veh, SKA2 / RFU, AFF3 / Fold change vs veh, AFF3 / RFU, LMF1 / Fold change vs veh, LMF1 / RFU, IPO11 / Fold change vs veh, IPO11 / RFU, DFFB / Fold change vs veh, DFFB / RFU, FOXP1 / Fold change vs veh, FOXP1 / RFU, CARD8 / Fold change vs veh, CARD8 / RFU, STRN3 / Fold change vs veh, STRN3 / RFU, ADK / Fold change vs veh, ADK / RFU, RASSF2 / Fold change vs veh, RASSF2 / RFU, WIPF1 / Fold change vs veh, WIPF1 / RFU, LARP1B / Fold change vs veh, LARP1B / RFU, RASA1 / Fold change vs veh, RASA1 / RFU, RB1 / Fold change vs veh, RB1 / RFU, PPFIA1 / Fold change vs veh, PPFIA1 / RFU, MAT2A / Fold change vs veh, MAT2A / RFU, CCT5 / Fold change vs veh, CCT5 / RFU, WDR92 / Fold change vs veh, WDR92 / RFU, CUX1 / Fold change vs veh, CUX1 / RFU, TTC7A / Fold change vs veh, TTC7A / RFU, TMEM135 / Fold change vs veh, TMEM135 / RFU, DEPTOR / Fold change vs veh, DEPTOR / RFU, CPM / Fold change vs veh, CPM / RFU, DNAJB6 / Fold change vs veh, DNAJB6 / RFU, CACNA2D3 / Fold change vs veh, CACNA2D3 / RFU, DTX4 / Fold change vs veh, DTX4 / RFU, TFCP2 / Fold change vs veh, TFCP2 / RFU, GMCL1 /// GMCL1P1 / Fold change vs veh, GMCL1 /// GMCL1P1 / RFU, AEBP2 / Fold change vs veh, AEBP2 / RFU, SNHG1 /// SNORD22 /// SNORD25 /// SNORD26 /// SNORD27 /// SNORD28 /// SNORD29 /// SNORD31 / Fold change vs veh, SNHG1 /// SNORD22 /// SNORD25 /// SNORD26 /// SNORD27 /// SNORD28 /// SNORD29 /// SNORD31 / Fold change (Aza/veh), C12orf56 (ProbeSet 11735607_a_at) / Fold change (ACY-1035/veh), C12orf56 (ProbeSet 11735607_a_at) / Fold change (Aza/veh), FGFR1OP (ProbeSet 11751329_s_at) / Fold change (ACY-1035/veh), FGFR1OP (ProbeSet 11751329_s_at) / Fold change (Aza/veh), VPS36 (ProbeSet 11739960_a_at) / Fold change (ACY-1035/veh), VPS36 (ProbeSet 11739960_a_at) / RFU SYPL1 (11715823_x_at) / Fold change /veh SYPL1 (11715823_x_at) / RFU IGFBP7 (11715501_s_at) / Fold change /veh IGFBP7 (11715501_s_at) / RFU REEP3 (11722064_at) / Fold change /veh REEP3 (11722064_at) / RFU IGLL1 (11728026_x_at) / Fold change /veh IGLL1 (11728026_x_at): dose or concentration left out as unconfirmed
Details: ProbeSet 11732433_s_at; LIST B

For `Nc1ncn([C@@H]2O[C@H](CO)[C@@H](O)[C@H]2O)c(=O)n1` [azacitidine], the “Fold change vs veh, GK” value was 0.93.

Source: publication PMC5218480 (PLoS ONE, 2017)
